# ± gives the standard deviation of the averaged measurements.
# Key:
# CELECOXIB [1] = compound: T1, Cc1ccc(-c2cc(C(F)(F)F)nn2-c2ccc(S(N)(=O)=O)cc2)cc1 [CELECOXIB]; experiment: surviving fraction relative to DMSO-only wells; higher = less growth inhibition; conditions: exposure time: 5 days
# Outline: (§1)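 Continuous five-day exposure to inhibitors at 0.5, 1, 5, 10, 50, 100, 500 and 1000 nM started 24 hours after log-phase tumour cell lines were seeded at 250–500 cells per well in 384-well plates. Luminescence was read after 10 minutes at room temperature. Viability is given as surviving fraction, meaning CellTiter-Glo luminescence normalised to the median of DMSO-only wells.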
# [2] = compound: CC(=O)NCC(=O)N1[C@@H]2CC[C@H]1c1ccc(Nc3ncc(C(F)(F)F)c(NC4CCC4)n3)cc12; experiment: as above; conditions: exposure time: 5 days
# Outline: as §1
# CAMPTOTHECIN [3] = compound: T2, CC[C@@]1(O)C(=O)OCc2c1cc1n(c2=O)Cc2cc3ccccc3nc2-1 [CAMPTOTHECIN]; experiment: as above; conditions: exposure time: 5 days
# Outline: as §1
# GEFITINIB [4] = compound: T3, COc1cc2ncnc(Nc3ccc(F)c(Cl)c3)c2cc1OCCCN1CCOCC1 [GEFITINIB]; experiment: as above; conditions: exposure time: 5 days
# Outline: as §1
# OSI-906 [5] = compound: T4, C[C@]1(O)C[C@@H](c2nc(-c3ccc4ccc(-c5ccccc5)nc4c3)c3c(N)nccn32)C1 [OSI-906]; experiment: as above; conditions: exposure time: 5 days
# Outline: as §1
# YM155 [6] = compound: T5, COCC[n+]1c2c(n(Cc3cnccn3)c1C)C(=O)c1ccccc1C2=O [YM155]; experiment: as above; conditions: exposure time: 5 days
# Outline: as §1
# CARBOPLATIN [7] = compound: T6, O=C(O)C1(C(=O)O)CCC1.[NH2-].[NH2-].[Pt+2] [CARBOPLATIN]; experiment: as above; conditions: exposure time: 5 days
# Outline: as §1
# [8] = compound: CC(=O)c1c(C)c2cnc(Nc3ccc(N4CCNCC4)cn3)nc2n(C2CCCC2)c1=O; experiment: as above; conditions: exposure time: 5 days
# Outline: as §1
# PACLITAXEL [9] = compound: T7, CC(=O)O[C@H]1C(=O)[C@@]2(C)[C@H]([C@H](OC(=O)c3ccccc3)[C@]3(O)C[C@H](OC(=O)[C@H](O)[C@@H](NC(=O)c4ccccc4)c4ccccc4)C(C)=C1C3(C)C)[C@]1(OC(C)=O)CO[C@@H]1C[C@@H]2O [PACLITAXEL]; experiment: as above; conditions: exposure time: 5 days
# Outline: as §1
# CELECOXIB [10] = compound: T1, CELECOXIB; experiment: area under dose-response curve of surviving fraction (unscaled, Aref=0) (surviving fraction x log10(nM)); higher = more resistant; conditions: exposure time: 5 days; dose range 0.5-1000 nM
# Outline: (§2)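 Tumour cell lines in 384-well plates were exposed to eight inhibitor concentrations, from 0.5 to 1000 nM, for five days, and viability was read by CellTiter-Glo luminescence in three screens per line. Signals were normalised to DMSO-only wells, and 3-parameter logistic regression in the drc R package fitted dose-response survival curves to the surviving fractions. Area under the curve is given as the unscaled activity area. That area is taken over log10 dose with Aref = 0.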
# [11] = compound: CC(=O)NCC(=O)N1[C@@H]2CC[C@H]1c1ccc(Nc3ncc(C(F)(F)F)c(NC4CCC4)n3)cc12; experiment: as above; conditions: exposure time: 5 days; dose range 0.5-1000 nM
# Outline: as §2
# CAMPTOTHECIN [12] = compound: T2, CAMPTOTHECIN; experiment: as above; conditions: exposure time: 5 days; dose range 0.5-1000 nM
# Outline: as §2
# GEFITINIB [13] = compound: T3, GEFITINIB; experiment: as above; conditions: exposure time: 5 days; dose range 0.5-1000 nM
# Outline: as §2
# OSI-906 [14] = compound: T4, OSI-906; experiment: as above; conditions: exposure time: 5 days; dose range 0.5-1000 nM
# Outline: as §2
# YM155 [15] = compound: T5, YM155; experiment: as above; conditions: exposure time: 5 days; dose range 0.5-1000 nM
# Outline: as §2
# CARBOPLATIN [16] = compound: T6, CARBOPLATIN; experiment: as above; conditions: exposure time: 5 days; dose range 0.5-1000 nM
# Outline: as §2
# [17] = compound: CC(=O)c1c(C)c2cnc(Nc3ccc(N4CCNCC4)cn3)nc2n(C2CCCC2)c1=O; experiment: as above; conditions: exposure time: 5 days; dose range 0.5-1000 nM
# Outline: as §2
# PACLITAXEL [18] = compound: T7, PACLITAXEL; experiment: as above; conditions: exposure time: 5 days; dose range 0.5-1000 nM
# Outline: as §2
test system,measurement,setting,value
C33A CERVIX,surviving fraction,CELECOXIB [1]; 0.5 nM,0.897 ± 0.037
same,surviving fraction,CELECOXIB [1]; 1 nM,0.951 ± 0.11
same,surviving fraction,CELECOXIB [1]; 5 nM,1.01 ± 0.083
same,surviving fraction,CELECOXIB [1]; 10 nM,0.954 ± 0.037
same,surviving fraction,CELECOXIB [1]; 50 nM,0.932 ± 0.11
same,surviving fraction,CELECOXIB [1]; 100 nM,1.04 ± 0.088
same,surviving fraction,CELECOXIB [1]; 500 nM,0.981 ± 0.13
same,surviving fraction,CELECOXIB [1]; 1000 nM,1.11 ± 0.035
same,surviving fraction,[2]; 0.5 nM,0.77 ± 0.079
same,surviving fraction,[2]; 1 nM,0.707 ± 0.032
same,surviving fraction,[2]; 5 nM,0.895 ± 0.062
same,surviving fraction,[2]; 10 nM,0.953 ± 0.069
same,surviving fraction,[2]; 50 nM,0.665 ± 0.087
same,surviving fraction,[2]; 100 nM,0.515 ± 0.03
same,surviving fraction,[2]; 500 nM,0.396 ± 0.011
same,surviving fraction,[2]; 1000 nM,0.351 ± 0.012
same,surviving fraction,CAMPTOTHECIN [3]; 0.5 nM,0.863 ± 0.019
same,surviving fraction,CAMPTOTHECIN [3]; 1 nM,0.868 ± 0.074
same,surviving fraction,CAMPTOTHECIN [3]; 5 nM,0.654 ± 0.1
same,surviving fraction,CAMPTOTHECIN [3]; 10 nM,0.423 ± 0.024
same,surviving fraction,CAMPTOTHECIN [3]; 50 nM,0.126 ± 0.03
same,surviving fraction,CAMPTOTHECIN [3]; 100 nM,0.0787 ± 0.0078
same,surviving fraction,CAMPTOTHECIN [3]; 500 nM,0.0317 ± 0.0032
same,surviving fraction,CAMPTOTHECIN [3]; 1000 nM,0.0383 ± 0.016
same,surviving fraction,GEFITINIB [4]; 0.5 nM,0.925 ± 0.067
same,surviving fraction,GEFITINIB [4]; 1 nM,1.01 ± 0.063
same,surviving fraction,GEFITINIB [4]; 5 nM,1.01 ± 0.018
same,surviving fraction,GEFITINIB [4]; 10 nM,0.969 ± 0.049
same,surviving fraction,GEFITINIB [4]; 50 nM,0.91 ± 0.052
same,surviving fraction,GEFITINIB [4]; 100 nM,0.973 ± 0.02
same,surviving fraction,GEFITINIB [4]; 500 nM,0.551 ± 0.054
same,surviving fraction,GEFITINIB [4]; 1000 nM,0.457 ± 0.058
same,surviving fraction,OSI-906 [5]; 0.5 nM,0.981 ± 0.054
same,surviving fraction,OSI-906 [5]; 1 nM,0.945 ± 0.052
same,surviving fraction,OSI-906 [5]; 5 nM,1.08 ± 0.011
same,surviving fraction,OSI-906 [5]; 10 nM,1.1 ± 0.053
same,surviving fraction,OSI-906 [5]; 50 nM,1.02 ± 0.13
same,surviving fraction,OSI-906 [5]; 100 nM,1.05 ± 0.14
same,surviving fraction,OSI-906 [5]; 500 nM,1.06 ± 0.096
same,surviving fraction,OSI-906 [5]; 1000 nM,0.985 ± 0.011
same,surviving fraction,YM155 [6]; 0.5 nM,0.816 ± 0.047
same,surviving fraction,YM155 [6]; 1 nM,0.325 ± 0.029
same,surviving fraction,YM155 [6]; 5 nM,0.057 ± 0.032
same,surviving fraction,YM155 [6]; 10 nM,0.031 ± 0.0062
same,surviving fraction,YM155 [6]; 50 nM,0.0213 ± 0.00058
same,surviving fraction,YM155 [6]; 100 nM,0.0393 ± 0.041
same,surviving fraction,YM155 [6]; 500 nM,0.0193 ± 0.0076
same,surviving fraction,YM155 [6]; 1000 nM,0.0353 ± 0.015
same,surviving fraction,CARBOPLATIN [7]; 0.5 nM,1.14 ± 0.063
same,surviving fraction,CARBOPLATIN [7]; 1 nM,1.14 ± 0.085
same,surviving fraction,CARBOPLATIN [7]; 5 nM,1.19 ± 0.082
same,surviving fraction,CARBOPLATIN [7]; 10 nM,1.43 ± 0.17
same,surviving fraction,CARBOPLATIN [7]; 50 nM,1.21 ± 0.066
same,surviving fraction,CARBOPLATIN [7]; 100 nM,1.43 ± 0.13
same,surviving fraction,CARBOPLATIN [7]; 500 nM,1.15 ± 0.051
same,surviving fraction,CARBOPLATIN [7]; 1000 nM,1.31 ± 0.024
same,surviving fraction,[8]; 0.5 nM,0.978 ± 0.065
same,surviving fraction,[8]; 1 nM,1.05 ± 0.066
same,surviving fraction,[8]; 5 nM,1.14 ± 0.13
same,surviving fraction,[8]; 10 nM,1.08 ± 0.067
same,surviving fraction,[8]; 50 nM,1.15 ± 0.13
same,surviving fraction,[8]; 100 nM,1.2 ± 0.11
same,surviving fraction,[8]; 500 nM,1.01 ± 0.082
same,surviving fraction,[8]; 1000 nM,1.16 ± 0.12
same,surviving fraction,PACLITAXEL [9]; 0.5 nM,0.855 ± 0.042
same,surviving fraction,PACLITAXEL [9]; 1 nM,0.842 ± 0.054
same,surviving fraction,PACLITAXEL [9]; 5 nM,0.328 ± 0.015
same,surviving fraction,PACLITAXEL [9]; 10 nM,0.179 ± 0.031
same,surviving fraction,PACLITAXEL [9]; 50 nM,0.11 ± 0.0091
same,surviving fraction,PACLITAXEL [9]; 100 nM,0.173 ± 0.047
same,surviving fraction,PACLITAXEL [9]; 500 nM,0.089 ± 0.021
same,surviving fraction,PACLITAXEL [9]; 1000 nM,0.0977 ± 0.025
same,area under dose-response curve,CELECOXIB [10],3.25
same,area under dose-response curve,[11],2.24
same,area under dose-response curve,CAMPTOTHECIN [12],1.24
same,area under dose-response curve,GEFITINIB [13],2.98
same,area under dose-response curve,OSI-906 [14],3.42
same,area under dose-response curve,YM155 [15],0.324
same,area under dose-response curve,CARBOPLATIN [16],4.12
same,area under dose-response curve,[17],3.67
same,area under dose-response curve,PACLITAXEL [18],0.98
